In patent publication US20130096067A1, “DROSOPHILA TUMOR STEM CELL MODEL AND USES THEREOF” (priority 2011, published 2013):
Read-outs that look alike come from different tables or passages of the source.

Tested on: Raf-1^gof intestinal tumors
Settings: for Log2 (fold) (luciferase activity, log2 of the fold difference relative to DMSO controls) / Fold (luciferase activity, fold difference relative to DMSO controls): screen of 480 ICCB compounds in vials, compounds fed to flies with one-day old Raf-1^gof tumors, esg-Gal4 luciferase
[1] = ICCB compounds fed in vials to flies with one-day old Raf-1^gof tumors, assessed three days later
[2] = ICCB compounds fed in vials to flies with one-day old Raf-1^gof tumors, assessed three days later, averaged from multiple wells
[3] = assessed three days later, averaged from multiple wells
Further: test concentration or dose not given here.

`CCCCCCCCCCCC=CCC=CCCCC(=O)O` [EICOSA-5,8-DIENOIC ACID (20:2 n-12)] was tested, and the “Log2 (fold) of luciferase activity relative to DMSO controls” value [1] was −0.149 and the “Fold (luciferase activity relative to DMSO controls)” value [2] was 0.902 fold.

For `CCCCC/C=C\C/C=C\CCCCCCCCCC(=O)O` [EICOSADIENOIC ACID (20:2 n-6)], the “Log2 (fold) of luciferase activity relative to DMSO controls” value [1] was −0.093 and the “Fold (luciferase activity relative to DMSO controls)” value [2] was 0.938 fold.

With `CC/C=C\C/C=C\C/C=C\C/C=C\C/C=C\CCCC(=O)O` [EICOSAPENTAENOIC ACID (20:5 n-3)] the “Log2 (fold) of luciferase activity relative to DMSO controls” value [1] was 0.024 and the “Fold (luciferase activity relative to DMSO controls)” value [2] was 1.017 fold.

In the case of `CC/C=C\C/C=C\C/C=C\CCCCCCCCCC(=O)O` [EICOSATRIENOIC ACID (20:3 n-3)], the “Log2 (fold) of luciferase activity relative to DMSO controls” value [1] is reported as 0.198 and the “Fold (luciferase activity relative to DMSO controls)” value [2] is reported as 1.147 fold.

`CCCCCCCCCCCCCCCCOCC(COP(=O)([O-])OCC[N+](C)(C)C)OC(C)=O` (stereo not drawn) [ENANTIO-PAF C16] was tested, and the “Log2 (fold) of luciferase activity relative to DMSO controls” value [1] was −0.051 and the “Fold (luciferase activity relative to DMSO controls)” value [2] was 0.965 fold.

With `C[C@]12CC[C@@H]3c4ccc(O)cc4CC[C@H]3[C@@H]1CC[C@@H]2O` [ESTRADIOL] the “Log2 (fold) of luciferase activity relative to DMSO controls” value [1] was −0.160 and the “Fold (luciferase activity relative to DMSO controls)” value [2] was 0.895 fold.

With `O=c1c2ccccc2[se]n1-c1ccccc1` [Ebselen] the “Log2 (fold) of luciferase activity relative to DMSO controls” value [1] was −0.168 and the “Fold (luciferase activity relative to DMSO controls)” value [2] was 0.890 fold.

With `CC(C)=CCC/C(C)=C/CC/C(C)=C/CSCC(=O)O` [FARNESYLTHIOACETIC ACID] the “Log2 (fold) (luciferase activity, log2 of the fold difference relative to DMSO controls)” value (assessed three days later) was −0.295 and the “Fold (luciferase activity, fold difference relative to DMSO controls)” value [3] was 0.815.

In the case of `N#CC(C#N)=NNc1ccc(OC(F)(F)F)cc1` [FCCP], the “Log2 (fold) (luciferase activity, log2 of the fold difference relative to DMSO controls)” value (assessed three days later) is reported as −0.313 and the “Fold (luciferase activity, fold difference relative to DMSO controls)” value [3] is reported as 0.805.

`C=CC[C@@H]1/C=C(\C)C[C@H](C)C[C@H](OC)[C@H]2O[C@@](O)(C(=O)C(=O)N3CCCC[C@H]3C(=O)O[C@H](/C(C)=C/[C@@H]3CC[C@@H](O)[C@H](OC)C3)[C@H](C)[C@@H](O)CC1=O)[C@H](C)C[C@@H]2OC` [FK-506] was tested, and the “Log2 (fold) (luciferase activity, log2 of the fold difference relative to DMSO controls)” value (assessed three days later) was −0.699 and the “Fold (luciferase activity, fold difference relative to DMSO controls)” value [3] was 0.616.

`O=C(NCC1CCCCN1)c1cc(OCC(F)(F)F)ccc1OCC(F)(F)F` (stereo not shown) [FLECAINIDE] was tested, and the “Log2 (fold) (luciferase activity, log2 of the fold difference relative to DMSO controls)” value (assessed three days later) was −0.253 and the “Fold (luciferase activity, fold difference relative to DMSO controls)” value [3] was 0.839.

With `O=C(O)c1ccccc1Nc1cccc(C(F)(F)F)c1` [FLUFENAMIC ACID] the “Log2 (fold) (luciferase activity, log2 of the fold difference relative to DMSO controls)” value (assessed three days later) was −0.214 and the “Fold (luciferase activity, fold difference relative to DMSO controls)” value [3] was 0.862.

`Fc1ccc(C(c2ccc(F)cc2)N2CCN(C/C=C/c3ccccc3)CC2)cc1` [FLUNARIZINE] was tested, and the “Log2 (fold) (luciferase activity, log2 of the fold difference relative to DMSO controls)” value (assessed three days later) was −0.836 and the “Fold (luciferase activity, fold difference relative to DMSO controls)” value [3] was 0.560.

`O=C1NCN(c2ccccc2)C12CCN(CCCC(c1ccc(F)cc1)c1ccc(F)cc1)CC2` [FLUSPIRILINE] was tested, and the “Log2 (fold) of luciferase activity relative to DMSO controls” value [1] was −0.192 and the “Fold (luciferase activity relative to DMSO controls)” value [2] was 0.875 fold.

For `COC(=O)c1c(C)[nH]c(C)c1C(=O)c1ccccc1Cc1ccccc1` [FPL-64176], the “Log2 (fold) of luciferase activity relative to DMSO controls” value [1] was −0.166 and the “Fold (luciferase activity relative to DMSO controls)” value [2] was 0.891 fold.

In the case of `CCCC[C@@H](C)[C@@H](OC(=O)C[C@@H](CC(=O)O)C(=O)O)[C@H](C[C@@H](C)C[C@H](O)CCCC[C@@H](O)C[C@H](O)[C@H](C)N)OC(=O)C[C@@H](CC(=O)O)C(=O)O` [Fumonisin B1], the “Log2 (fold) (luciferase activity, log2 of the fold difference relative to DMSO controls)” value (assessed three days later) is reported as −0.685 and the “Fold (luciferase activity, fold difference relative to DMSO controls)” value [3] is reported as 0.622.

In the case of `N#Cc1c(-c2ccccc2)no[n+]1[O-]` [Furoxan], the “Log2 (fold) (luciferase activity, log2 of the fold difference relative to DMSO controls)” value (assessed three days later) is reported as −0.280 and the “Fold (luciferase activity, fold difference relative to DMSO controls)” value [3] is reported as 0.823.

In the case of `CCCCC/C=C\C/C=C\C/C=C\CCCCC(=O)O` [GAMMA-LINOLENIC ACID (18:3 n-6)], the “Log2 (fold) of luciferase activity relative to DMSO controls” value [1] is reported as −0.145 and the “Fold (luciferase activity relative to DMSO controls)” value [2] is reported as 0.904 fold.

In the case of `CN(C)CCCn1cc(C2=C(c3c[nH]c4ccccc34)C(=O)NC2=O)c2ccccc21` [GF-109203X], the “Log2 (fold) (luciferase activity, log2 of the fold difference relative to DMSO controls)” value (assessed three days later) is reported as −0.238 and the “Fold (luciferase activity, fold difference relative to DMSO controls)” value [3] is reported as 0.848.

With `CCCCC[C@H](O)CC(=O)CCc1ccc(O)c(OC)c1` [GINGEROL] the “Log2 (fold) (luciferase activity, log2 of the fold difference relative to DMSO controls)” value (assessed three days later) was −0.273 and the “Fold (luciferase activity, fold difference relative to DMSO controls)” value [3] was 0.827.

In the case of `Cc1cnc(C(=O)NCCc2ccc(S(=O)(=O)NC(=O)NC3CCCCC3)cc2)cn1` [GLIPIZIDE], the “Log2 (fold) (luciferase activity, log2 of the fold difference relative to DMSO controls)” value (assessed three days later) is reported as −0.417 and the “Fold (luciferase activity, fold difference relative to DMSO controls)” value [3] is reported as 0.749.

In the case of `COc1ccc(Cl)cc1C(=O)NCCc1ccc(S(=O)(=O)NC(=O)NC2CCCCC2)cc1` [GLYBURIDE], the “Log2 (fold) (luciferase activity, log2 of the fold difference relative to DMSO controls)” value (assessed three days later) is reported as −0.217 and the “Fold (luciferase activity, fold difference relative to DMSO controls)” value [3] is reported as 0.861.

`CNC(=O)[C@H](Cc1c[nH]c2ccccc12)NC(=O)[C@@H](CC(=O)NO)CC(C)C` [GM6001] was tested, and the “Log2 (fold) of luciferase activity relative to DMSO controls” value [1] was 0.173 and the “Fold (luciferase activity relative to DMSO controls)” value [2] was 1.128 fold.

`CC1(O)CC23CC(O)C4(O)C(CC(O)C4(C)C)C(C)(O)C2CCC1C3O` (stereo not shown) [GR[…]] was tested, and the “Log2 (fold) (luciferase activity, log2 of the fold difference relative to DMSO controls)” value (assessed three days later) was −0.553 and the “Fold (luciferase activity, fold difference relative to DMSO controls)” value [3] was 0.682.

`O=C1Nc2ccc(I)cc2/C1=C/c1cc(Br)c(O)c(Br)c1` [GW-5074] was tested, and the “Log2 (fold) (luciferase activity, log2 of the fold difference relative to DMSO controls)” value (assessed three days later) was −0.369 and the “Fold (luciferase activity, fold difference relative to DMSO controls)” value [3] was 0.774.

With `O=C(Nc1ccccc1)c1cc([N+](=O)[O-])ccc1Cl` [GW-9662] the “Log2 (fold) (luciferase activity, log2 of the fold difference relative to DMSO controls)” value (assessed three days later) was −0.581 and the “Fold (luciferase activity, fold difference relative to DMSO controls)” value [3] was 0.669.

For `CN1C(=O)[C@]23CC4=CC=C[C@H](O)[C@H]4N2C(=O)[C@@]1(CO)SS3` [Gliotoxin], the “Log2 (fold) (luciferase activity, log2 of the fold difference relative to DMSO controls)” value (assessed three days later) was −0.478 and the “Fold (luciferase activity, fold difference relative to DMSO controls)” value [3] was 0.718.

In the case of `Cn1c2ccccc2c2c3c(c4c5ccccc5n(CCC#N)c4c21)CNC3=O` [Go6976], the “Log2 (fold) (luciferase activity, log2 of the fold difference relative to DMSO controls)” value (assessed three days later) is reported as −0.287 and the “Fold (luciferase activity, fold difference relative to DMSO controls)” value [3] is reported as 0.819.

With `O=S(=O)(c1cccc2cnccc12)N1CCCNCC1` [HA1077] the “Log2 (fold) (luciferase activity, log2 of the fold difference relative to DMSO controls)” value (assessed three days later) was −0.326 and the “Fold (luciferase activity, fold difference relative to DMSO controls)” value [3] was 0.798.

In the case of `NC(N)=NCCNS(=O)(=O)c1cccc2cnccc12` [HA-1004], the “Log2 (fold) (luciferase activity, log2 of the fold difference relative to DMSO controls)” value (assessed three days later) is reported as −0.372 and the “Fold (luciferase activity, fold difference relative to DMSO controls)” value [3] is reported as 0.773.

`COCc1cc(O)c(O)c(O)c1-c1c(COC)cc(O)c(O)c1O` [HBDDE] was tested, and the “Log2 (fold) (luciferase activity, log2 of the fold difference relative to DMSO controls)” value (assessed three days later) was −0.233 and the “Fold (luciferase activity, fold difference relative to DMSO controls)” value [3] was 0.851.

`NCCc1c[nH]cn1` [HISTAMINE] was tested, and the “Log2 (fold) of luciferase activity relative to DMSO controls” value [1] was −0.158 and the “Fold (luciferase activity relative to DMSO controls)” value [2] was 0.896 fold.

`CC(=O)OCOC(c1ccc2ccccc2c1)P(=O)(OCOC(C)=O)OCOC(C)=O` (stereo not shown) [HNMPA-(AM)3] was tested, and the “Log2 (fold) of luciferase activity relative to DMSO controls” value [1] was −0.049 and the “Fold (luciferase activity relative to DMSO controls)” value [2] was 0.966 fold.

For `C=C1C(=O)O[C@@H]2C[C@@H](C)[C@@H]3C=CC(=O)[C@@]3(C)[C@@H](O)[C@H]12` [Helenalin], the “Fold (luciferase activity relative to DMSO controls)” value (in vivo) was 1.112 fold and the “Log2 (fold) of luciferase activity relative to DMSO controls” value (in vivo) was 0.154.

`CC(C)c1cccc(=O)c(O)c1` [Hinokitiol] was tested, and the “Log2 (fold) (luciferase activity, log2 of the fold difference relative to DMSO controls)” value (assessed three days later) was −0.240 and the “Fold (luciferase activity, fold difference relative to DMSO controls)” value [3] was 0.847.
